Measured values reported in US20140314847A1, “CONTROLLED RELEASE PHARMACEUTICAL COMPOSITIONS WITH IMPROVED BIOAVAILABILILTY” (priority 2004, published 2014).

Test: In vitro dissolution study of acyclovir solubilized using various solubilizers
Assay type: physicochemical
Description: A solubilizing agent was melted in a container and a drug was added and mixed intimately and cooled to room temperature. The mass was sifted through an appropriate sieve to get a uniform blend. A blend of the drug was prepared using polyethylene glycol 6000, Lutrol F127 and Gelucire (50/13). Solid dispersion of the drug with various solubilizing agents like polyethylene glycol 6000, Lutrol F127 and Gelucire 50/13 were studied for their solubility in 900 ml distilled water. […] Also with Lutrol in ratio (1:0.5 to 1:2) a three-fold increase in instantaneous solubility was observed. These samples were taken for dissolution study and the result obtained are provided in Table 3 hereunder and graphically depicted in Figure-I: […]

Question: What does the source list for `Nc1nc2c(ncn2COCCO)c(=O)[nH]1` [Acyclovir as is, Acyclovir]?
Answer: % drug dissolved (0 min): 0%; % drug dissolved (5 min): 16.03%; % drug dissolved (10 min): 19.58%; % drug dissolved (15 min): 24.09%; % drug dissolved (20 min): 29.34%; % drug dissolved (30 min): 33.89%; % drug dissolved (45 min): 47.11%; % drug dissolved (60 min): 53.78%; % drug dissolved (90 min): 68.87%; % drug dissolved (120 min): 75.40%
